Results published in PubChem BioAssay (NCI).
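Tested at 5 concentrations; 48 h exposure; 96-well plates; endpoints linearly interpolated, else capped at highest concentration. Abbreviation: GI50, concentration required for 50% inhibition of growth. TGI is the concentration that stops growth completely.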

Columns and labels:
Assay in all cases: inhibition of tumour cell growth, NCI panel, 48 h
SN12C renal = tested on: SN12C renal
NCI/ADR-RES ovarian = tested on: NCI/ADR-RES ovarian
SK-MEL-2 melanoma = tested on: SK-MEL-2 melanoma
K-562 leukemia = tested on: K-562 leukemia
OVCAR-8 ovarian = tested on: OVCAR-8 ovarian
NCI-H460 lung = tested on: NCI-H460 lung
EKVX NSCLC = tested on: EKVX NSCLC
IGROV1 ovarian = tested on: IGROV1 ovarian
SK-OV-3 ovarian = tested on: SK-OV-3 ovarian
HS 578T breast = tested on: HS 578T breast

Compound	GI50 (SN12C renal) [µM]	TGI (SN12C renal) [µM]	GI50 (NCI/ADR-RES ovarian) [µM]	TGI (NCI/ADR-RES ovarian) [µM]	GI50 (SK-MEL-2 melanoma) [µM]	TGI (SK-MEL-2 melanoma) [µM]	GI50 (K-562 leukemia) [µM]	TGI (K-562 leukemia) [µM]	GI50 (OVCAR-8 ovarian) [µM]	TGI (OVCAR-8 ovarian) [µM]	GI50 (NCI-H460 lung) [µM]	TGI (NCI-H460 lung) [µM]	GI50 (EKVX NSCLC) [µM]	TGI (EKVX NSCLC) [µM]	TGI (IGROV1 ovarian) [µM]	TGI (SK-OV-3 ovarian) [µM]	TGI (HS 578T breast) [µM]	GI50 (SK-OV-3 ovarian) [µM]	GI50 (HS 578T breast) [µM]	GI50 (IGROV1 ovarian) [µM]
NCCCn1c2c(c3ccc([N+](=O)[O-])cc3c1=O)C(=O)c1cc(-c3ccccc3)ccc1-2	0.824	2.34	1.84	3.76	0.438	1.27	0.0443	0.185	0.31	0.884	0.34	1.38	1.61	3.45	–	–	–	–	–	–
CCC(CCC(C)C1CCC2C3CC=C4CC(OC5OC(CO)C(O)C(O)C5O)CCC4(C)C3CCC12C)C(C)C (stereo unspecified)	–	> 100	–	> 100	–	> 100	–	–	–	> 100	–	> 100	–	> 100	> 100	> 100	> 100	–	–	–
COc1ccc(-c2nc(Nc3ccc(-c4nc5ccccc5[nH]4)cc3)nc(N3CCOCC3)n2)cc1	3.19	23	3.18	26.7	2.33	5.49	–	–	3.26	10.8	2.48	6.51	2.6	> 100	–	5.53	6.96	2.37	1.76	–
O=[N+]([O-])c1ccc(Sc2nc(Cl)nc(NC3CCCC3)n2)cc1	> 10	> 10	> 10	> 10	> 10	> 10	5.89	> 10	> 10	> 10	> 10	> 10	–	–	> 10	> 10	> 10	> 10	> 10	2.84
COC1=C(Br)C(O)C2(C=C1Br)CC(C(=O)NCCCCNC(=O)C1=NOC3(C=C(Br)C(OC)=C(Br)C3O)C1)=NO2 (stereo unspecified)	–	> 100	–	> 100	–	52.8	–	55.4	–	> 100	–	> 100	–	–	46.8	> 100	46.9	–	–	–
Nc1ccccc1NC(=O)c1ccc(CN2CCC/C(=C\c3ccccn3)C2=O)cc1	2.59	> 100	1.33	> 100	1.57	11.8	0.414	> 100	0.878	> 100	1.65	> 100	3.75	> 100	> 100	> 100	–	1.93	–	1.1
CCN(CC)CCOc1ccc(/C=C2\C[C@H]3[C@H]4CC=C5C[C@@H](O)CC[C@]5(C)[C@H]4CC[C@]3(C)[C@H]2O)cc1OC	6.78	14	9.98	22	0.135	> 50	8.09	32	12.9	26.5	13.1	> 50	–	–	> 50	–	18.7	–	8.66	1.23
Cn1cc(-c2csc(-c3cn(CCCCN4CCCCC4)c4ccc(F)cc34)n2)c2cccnc21	–	–	–	–	2.3	5.98	–	–	–	–	1.9	3.52	–	–	–	32.7	53.8	16.2	12.4	–
CCOC(=O)c1ccc2c(c1)nc(/C=C/c1ccc(Cl)cc1)n2-c1cc(C(C)(C)C)[nH]n1	7.3	81	10.1	> 100	–	–	4.41	> 100	5.31	33.9	6.28	> 100	–	–	33.8	14.8	61.8	4.28	3.6	5.09
CCCC[n+]1c(/C=C\c2c(OC)cc(OC)cc2OC)ccc2ccccc21	0.728	5.77	15.9	> 71.9	1.08	2.74	0.294	> 38.6	0.613	7.69	0.574	2.83	–	–	6.7	8.83	8.64	1.98	1.28	1.09
O=C(O)C1C2C=CC(C2)C1C(=O)O (stereo unspecified)	> 100	> 100	> 100	> 100	> 100	> 100	> 100	> 100	> 100	> 100	> 100	> 100	–	–	> 100	> 100	> 100	> 100	> 100	> 100
O=C(N/C(=C\c1ccc(/C=C(\NC(=O)c2ccccc2)c2nc3cc(Cl)ccc3[nH]2)cc1)c1nc2cc(Cl)ccc2[nH]1)c1ccccc1	–	> 100	–	–	–	99.6	–	71	–	> 100	–	> 100	–	91.9	> 100	> 100	–	–	–	–
COc1cccc(NC(=O)C(C)(C)C)c1SSc1c(NC(=O)C(C)(C)C)cccc1OC	–	> 54.9	–	–	–	> 100	–	> 82.5	–	35.4	–	> 100	–	> 100	> 100	> 100	–	–	–	–
